Assay results reported in patent US9382254B2, “Compounds and pharmaceutical compositions thereof for the treatment of cystic fibrosis” (Galapagos NV, priority 2013, dated 2016).

Key:
Type in all cases: cell-based
CFTR ΔF508 mutant [1] = target: T1, CFTR ΔF508 mutant (Homo sapiens, UniProt P13569, DEL508-508); assay: YFP-halide influx assay for the CFTR-ΔF508 mutation, PBS buffer (96 well); settings: CFBE41o- cells, forskolin 10.67 μM
T1 construct: expressed in transfected cells; host or cells: CFBE41o- (adenoviral transduction)
T1 sequence (P13569 with tags, fused parts or gaps DEL508-508): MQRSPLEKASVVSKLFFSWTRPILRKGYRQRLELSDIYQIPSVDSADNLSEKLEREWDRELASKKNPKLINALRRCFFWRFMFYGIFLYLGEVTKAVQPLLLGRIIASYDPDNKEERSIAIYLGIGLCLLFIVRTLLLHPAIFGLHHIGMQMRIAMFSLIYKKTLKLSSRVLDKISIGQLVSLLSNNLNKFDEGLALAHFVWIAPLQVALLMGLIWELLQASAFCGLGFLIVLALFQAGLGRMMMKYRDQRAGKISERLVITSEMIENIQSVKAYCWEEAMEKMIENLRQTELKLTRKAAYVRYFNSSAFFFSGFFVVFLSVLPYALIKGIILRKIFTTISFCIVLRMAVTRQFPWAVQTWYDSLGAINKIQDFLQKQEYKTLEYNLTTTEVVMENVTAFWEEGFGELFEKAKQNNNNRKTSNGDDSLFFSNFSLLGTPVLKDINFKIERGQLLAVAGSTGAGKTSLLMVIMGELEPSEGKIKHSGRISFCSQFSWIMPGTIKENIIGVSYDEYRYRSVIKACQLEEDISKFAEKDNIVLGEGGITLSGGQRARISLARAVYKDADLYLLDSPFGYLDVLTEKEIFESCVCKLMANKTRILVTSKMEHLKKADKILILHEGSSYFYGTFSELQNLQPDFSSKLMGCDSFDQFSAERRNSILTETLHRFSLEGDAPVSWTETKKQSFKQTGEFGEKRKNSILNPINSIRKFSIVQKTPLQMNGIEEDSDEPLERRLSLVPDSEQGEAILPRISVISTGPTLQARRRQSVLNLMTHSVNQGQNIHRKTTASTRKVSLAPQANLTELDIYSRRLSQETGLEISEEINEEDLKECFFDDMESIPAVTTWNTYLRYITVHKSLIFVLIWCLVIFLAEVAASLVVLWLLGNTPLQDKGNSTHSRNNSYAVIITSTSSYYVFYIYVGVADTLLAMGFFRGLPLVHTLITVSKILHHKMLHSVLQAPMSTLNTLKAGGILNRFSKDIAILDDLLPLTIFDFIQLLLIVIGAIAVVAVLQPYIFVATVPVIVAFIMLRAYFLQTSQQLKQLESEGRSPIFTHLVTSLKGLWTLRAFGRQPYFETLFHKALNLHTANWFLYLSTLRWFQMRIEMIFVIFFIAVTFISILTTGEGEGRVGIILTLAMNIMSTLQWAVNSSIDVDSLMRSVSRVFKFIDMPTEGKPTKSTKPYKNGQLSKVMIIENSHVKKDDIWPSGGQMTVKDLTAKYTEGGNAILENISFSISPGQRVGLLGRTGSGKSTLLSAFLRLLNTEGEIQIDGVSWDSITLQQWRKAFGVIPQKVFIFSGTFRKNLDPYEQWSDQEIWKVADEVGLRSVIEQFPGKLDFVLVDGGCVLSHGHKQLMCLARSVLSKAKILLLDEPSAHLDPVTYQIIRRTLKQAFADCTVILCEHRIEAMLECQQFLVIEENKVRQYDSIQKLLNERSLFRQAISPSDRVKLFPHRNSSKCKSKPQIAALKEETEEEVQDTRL
Source text: The YFP halide influx assay measures the functionality of the cystic fibrosis Transmembrane Conductance regulator (CFTR) channels in the cystic fibrosis bronchial epithelium cell line CFBE41o-. The assay is used to evaluate the capacity of compounds to increase the open probability of existing CFTR channels in the membrane. It makes use of the observation that the yellow fluorescent protein (YFP) variant YFP H148Q, I152L has its fluorescence substantially quenched by halide ions like Cl^− and I^−. (Galietta, Haggie, & Verkman, 2001) (Nagai, et al., 2002)
For this purpose, CFBE41o-cells are seeded in 96 well plates (6000 CFBE cells/well). One day after seeding, the CFBE cells are transduced with adenoviral vectors that direct the expression of the CFTR ΔF508 mutant and of the YFP reporter. Cells are incubated at 27° C., 5% CO2 for 24 hours so as to allow for the proper folding and migration to the membrane of the CFTR channel or treated with a CFTR modulator during 24 hours at 37° C.
The I^− induced quenching of fluorescence is recorded immediately after injection of I^− for 7 seconds. The capacity of a compound to increase the channel opening is directly correlated with the decrease in fluorescence, and is expressed as (1-(fluorescence after 7 seconds (F)/fluorescence before injection (F0))) and an EC50 can be derived from a (1-F/F0) vs compound concentration plot.

CFTR G551D mutant = target: T2, CFTR G551D mutant (Homo sapiens, UniProt P13569, G551D); assay: YFP-halide influx assay for the CFTR-G551D mutation; settings: HEK293 cells, forskolin 10.67 μM
T2 construct: expressed in transfected cells; host or cells: HEK293 (reverse transfection with plasmid)
T2 sequence (P13569 whole entry G551D): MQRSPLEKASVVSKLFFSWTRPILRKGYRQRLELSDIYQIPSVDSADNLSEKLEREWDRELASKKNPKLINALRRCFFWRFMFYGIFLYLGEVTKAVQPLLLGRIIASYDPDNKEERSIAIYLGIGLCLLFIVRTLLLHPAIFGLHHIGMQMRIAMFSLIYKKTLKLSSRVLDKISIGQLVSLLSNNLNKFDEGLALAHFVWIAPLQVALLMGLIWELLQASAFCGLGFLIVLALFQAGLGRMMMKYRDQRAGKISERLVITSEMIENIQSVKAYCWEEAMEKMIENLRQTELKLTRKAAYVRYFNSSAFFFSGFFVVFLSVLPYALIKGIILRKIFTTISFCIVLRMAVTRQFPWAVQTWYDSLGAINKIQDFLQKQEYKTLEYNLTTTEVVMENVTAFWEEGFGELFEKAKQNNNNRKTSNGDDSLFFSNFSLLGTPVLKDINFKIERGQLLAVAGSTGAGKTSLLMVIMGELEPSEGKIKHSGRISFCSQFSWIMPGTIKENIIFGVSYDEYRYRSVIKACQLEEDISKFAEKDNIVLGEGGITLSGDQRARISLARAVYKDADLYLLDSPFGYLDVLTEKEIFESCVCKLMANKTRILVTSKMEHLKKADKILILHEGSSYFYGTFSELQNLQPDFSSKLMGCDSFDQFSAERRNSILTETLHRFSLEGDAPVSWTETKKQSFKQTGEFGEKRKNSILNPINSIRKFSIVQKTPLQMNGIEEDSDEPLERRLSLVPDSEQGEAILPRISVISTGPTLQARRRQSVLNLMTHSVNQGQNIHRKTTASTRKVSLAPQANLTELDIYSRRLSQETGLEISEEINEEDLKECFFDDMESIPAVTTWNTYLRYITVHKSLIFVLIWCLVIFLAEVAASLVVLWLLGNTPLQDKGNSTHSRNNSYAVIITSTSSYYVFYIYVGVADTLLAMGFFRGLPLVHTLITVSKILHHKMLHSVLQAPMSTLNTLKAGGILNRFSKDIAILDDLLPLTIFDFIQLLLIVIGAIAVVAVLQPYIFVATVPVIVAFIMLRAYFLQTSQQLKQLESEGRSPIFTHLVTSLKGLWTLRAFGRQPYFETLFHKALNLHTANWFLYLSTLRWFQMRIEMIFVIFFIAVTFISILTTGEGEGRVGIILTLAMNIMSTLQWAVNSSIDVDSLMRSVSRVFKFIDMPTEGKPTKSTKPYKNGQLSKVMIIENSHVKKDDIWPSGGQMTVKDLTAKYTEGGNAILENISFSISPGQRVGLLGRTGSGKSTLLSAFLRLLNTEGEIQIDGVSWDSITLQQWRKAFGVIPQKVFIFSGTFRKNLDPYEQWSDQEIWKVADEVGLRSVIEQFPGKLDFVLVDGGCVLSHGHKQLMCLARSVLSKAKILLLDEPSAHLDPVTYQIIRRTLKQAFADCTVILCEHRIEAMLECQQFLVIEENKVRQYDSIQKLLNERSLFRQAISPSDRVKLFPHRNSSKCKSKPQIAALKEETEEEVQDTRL
Summary of the method: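 HEK293 cells reverse-transfected with CFTR G551D and YFP H148Q/I152L/F47L halide sensor, expressed 24 h at 37 °C. Iodide-induced fluorescence quench recorded 7 s after I− injection; response = 1−F/F0, with EC50 from plot against compound concentration.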

CFTR ΔF508 mutant [2] = target: T1, CFTR ΔF508 mutant; assay: YFP-halide influx assay for the CFTR-ΔF508 mutation (384 well, FDSS/μCell); settings: CFBE41o- cells, CFTR-ΔF508, 1×D-PBS, fluorescence after 36 seconds
Summary of the method: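 Potentiator read-out as 1−F/F0, F taken 36 s after iodide addition, EC50 fitted against compound concentration. Cells: CFBE41o- expressing ΔF508 CFTR plus halide-sensitive YFP via adenovirus, rescued by 27 °C for 24 h or 24 h modulator at 37 °C.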

SMILES | EC50 (CFTR ΔF508 mutant [1]) [nM] | EC50 (CFTR G551D mutant) [nM] | EC50 (CFTR ΔF508 mutant [2]) [nM]
NC(=O)c1cc(S(=O)(=O)c2cccc(F)c2)sc1NC(=O)C1(O)CC1 [Compound 227, 5-(3-fluorophenylsulfonyl)-2-(1-hydroxycyclopropanecarboxamido) thiophene-3-carboxamide] | 41.5 | 472 | 39.3
CC(C)c1ccccc1S(=O)(=O)c1cc(C(N)=O)c(NC(=O)C2(O)CC2)s1 [Compound 228, 2-(1-hydroxycyclopropanecarboxamido)-5-(2-isopropylphenylsulfonyl) thiophene-3-carboxamide] | 20.5 | 93 | 29
CN(Cc1ccc(F)cc1)S(=O)(=O)c1cc(C(N)=O)c(NC(=O)C2(O)CC2)s1 [Compound 231, 5-(N-(4-fluorobenzyl)-N-methylsulfamoyl)-2-(1-hydroxycyclopropanecarboxamido) thiophene-3-carboxamide] | 26 | 676 | 31.8
CN(c1ccc(F)cc1)S(=O)(=O)c1cc(C(N)=O)c(NC(=O)C2(O)CC2)s1 [Compound 236, 5-(N-(4-fluorophenyl)-N-methylsulfamoyl)-2-(1-hydroxycyclopropanecarboxamido) thiophene-3-carboxamide] | 46.4 | 6660 | 25.2
NC(=O)c1cc(S(=O)(=O)N2CCOc3ccccc32)sc1NC(=O)C1(O)CC1 [Compound 242, 5-(2H-benzo[b][1,4]oxazin-4(3H)-ylsulfonyl)-2-(1-hydroxycyclopropanecarboxamido) thiophene-3-carboxamide] | 17.3 | 163 | 9.6
COc1ccc(S(=O)(=O)c2cc(C(N)=O)c(NC(=O)C3(O)CC3)s2)cc1 [Compound 245, 2-(1-hydroxycyclopropanecarboxamido)-5-(4-methoxyphenylsulfonyl) thiophene-3-carboxamide] | 60.3 | 621 | 113
COc1ccc(OC)c(S(=O)(=O)c2cc(C(N)=O)c(NC(=O)C3(O)CC3)s2)c1 [Compound 246, 5-(2,5-dimethoxyphenylsulfonyl)-2-(1-hydroxycyclopropanecarboxamido) thiophene-3-carboxamide] | 78.5 | 627 | 75.1
NC(=O)c1cc(S(=O)(=O)c2c(Cl)cccc2Cl)sc1NC(=O)C1(O)CC1 [Compound 247, 5-(2,6-dichlorophenylsulfonyl)-2-(1-hydroxycyclopropanecarboxamido) thiophene-3-carboxamide] | 10.8 | 113 | 18.5
CC(O)C(=O)Nc1sc(S(=O)(=O)c2ccc(F)cc2)cc1C(N)=O (stereo not drawn) [Compound 248, 5-(4-fluorophenylsulfonyl)-2-(2-hydroxypropanamido) thiophene-3-carboxamide] | 85.8 | 1390 | 70.1
Cc1cccc(C)c1S(=O)(=O)c1cc(C(N)=O)c(NC(=O)C2(O)CC2)s1 [Compound 251, 5-(2,6-dimethylphenylsulfonyl)-2-(1-hydroxycyclopropanecarboxamido) thiophene-3-carboxamide] | 20.8 | 1250 | 47.2
CC(C)(CO)C(=O)Nc1sc(S(=O)(=O)c2ccc(F)cc2)cc1C(N)=O [Compound 253, 5-(4-fluorophenylsulfonyl)-2-(3-hydroxy-2,2-dimethylpropanamido) thiophene-3-carboxamide] | 73 | 3330 | 50.8
NC(=O)c1cc(S(=O)(=O)c2ccc(F)cc2F)sc1NC(=O)C1(O)CC1 [Compound 256, 5-(2,4-difluorophenylsulfonyl)-2-(1-hydroxycyclopropanecarboxamido) thiophene-3-carboxamide] | 26.2 | 1770 | 23.1
NC(=O)c1cc(S(=O)(=O)c2ccccc2C(F)(F)F)sc1NC(=O)C1(O)CC1 [Compound 257, 2-(1-hydroxycyclopropanecarboxamido)-5-(2-(trifluoromethyl)phenylsulfonyl) thiophene-3-carboxamide] | 16.3 | 333 | 26.1
CC1CN(S(=O)(=O)c2cc(C(N)=O)c(NC(=O)c3ccccc3C(F)(F)F)s2)C(C)(C)CO1 (stereo not drawn) [Compound 263, 2-(2-(trifluoromethyl)benzamido)-5-(2,5,5-trimethylmorpholinosulfonyl) thiophene-3-carboxamide] | 81.1 | 3330 | 148
NC(=O)c1cc(S(=O)(=O)c2ccc(F)cc2Br)sc1NC(=O)C1(O)CC1 [Compound 264, 5-(2-bromo-4-fluorophenylsulfonyl)-2-(1-hydroxycyclopropanecarboxamido) thiophene-3-carboxamide] | 30.1 | 1020 | 19.4
CC(C)Oc1cccc(S(=O)(=O)c2cc(C(N)=O)c(NC(=O)C(C)(C)O)s2)c1 [Compound 265, 2-(2-hydroxy-2-methylpropanamido)-5-(3-isopropoxyphenylsulfonyl) thiophene-3-carboxamide] | 42.2 | 2000 | 91.7
CC(C)(O)C(=O)Nc1sc(S(=O)(=O)c2cccc(OC(F)(F)F)c2)cc1C(N)=O [Compound 269, 2-(2-hydroxy-2-methylpropanamido)-5-(3-(trifluoromethoxy)phenylsulfonyl) thiophene-3-carboxamide] | 33 | 935 | 10.1
NC(=O)c1cc(S(=O)(=O)c2ccc(F)cc2)sc1NC(=O)C1CCCC1O (stereo not drawn) [Compound 272, 5-(4-fluorophenylsulfonyl)-2-(2-hydroxycyclopentanecarboxamido) thiophene-3-carboxamide] | 48.9 | 771 | 102
CC(CO)C(=O)Nc1sc(S(=O)(=O)c2ccc(F)cc2)cc1C(N)=O (stereo not drawn) [Compound 273, 5-(4-fluorophenylsulfonyl)-2-(3-hydroxy-2-methylpropanamido) thiophene-3-carboxamide] | 111 | 3080 | 148
CC(C)Oc1ccc(S(=O)(=O)c2cc(C(N)=O)c(NC(=O)C(C)(C)O)s2)cc1 [Compound 279, 2-(2-hydroxy-2-methylpropanamido)-5-(4-isopropoxyphenylsulfonyl) thiophene-3-carboxamide] | 55.5 | 614 | 116
NC(=O)c1cc(S(=O)(=O)c2ccc(F)cc2)sc1NC(=O)C1CCCCC1O (stereo not drawn) [Compound 280, 5-(4-fluorophenylsulfonyl)-2-(2-hydroxycyclohexanecarboxamido) thiophene-3-carboxamide] | 28 | 1660 | 117
CC(C)Oc1cc(F)ccc1S(=O)(=O)c1cc(C(N)=O)c(NC(=O)C(C)(C)O)s1 [Compound 281, 5-(4-fluoro-2-isopropoxyphenylsulfonyl)-2-(2-hydroxy-2-methylpropanamido) thiophene-3-carboxamide] | 41.1 | 1540 | 136
CC(C)(O)C(=O)Nc1sc(S(=O)(=O)c2ccc(F)cc2OC(F)F)cc1C(N)=O [Compound 283, 5-(2-(difluoromethoxy)-4-fluorophenylsulfonyl)-2-(2-hydroxy-2-methylpropanamido) thiophene-3-carboxamide] | 47.7 | 564 | 69.6
COc1ccc(S(=O)(=O)c2cc(C(N)=O)c(NC(=O)C(C)(C)O)s2)c(OC(F)F)c1 [Compound 284, 5-(2-(difluoromethoxy)-4-methoxyphenylsulfonyl)-2-(2-hydroxy-2-methylpropanamido) thiophene-3-carboxamide] | 51 | 793 | 85.2
CC(C)(O)C(=O)Nc1sc(S(=O)(=O)c2ccccc2C(F)(F)F)cc1C(N)=O [Compound 289, 2-(2-hydroxy-2-methylpropanamido)-5-(2-(trifluoromethyl)phenylsulfonyl) thiophene-3-carboxamide] | 31.1 | 191 | 28.4
C[C@H](O)C(=O)Nc1sc(S(=O)(=O)c2ccc(F)cc2)cc1C(N)=O [Compound 291, (S)-5-(4-fluorophenylsulfonyl)-2-(2-hydroxypropanamido) thiophene-3-carboxamide] | 81.2 | 1510 | 17.3
